Laboratory results reported in patent publication US20260151434A1, “COMPOSITIONS FOR THE TREATMENT OF DISEASE” (priority 2022, published 2026).
Bridge positions count the residues as written; N and C are the ends. Square brackets hold non-standard residues; d marks the D form. Triazole bridges read from a SMILES are 1,4-linked. Peptide text beside a SMILES is read from it. * marks the point of attachment. Benzoyl(3,5-(OH)2) = O=C(c1cc(O)cc(O)c1)*; Lys(N3) = [N-]=[N+]=NCCCC[C@H](N)C(=O)O; dPhe(4-F) = N[C@H](Cc1ccc(F)cc1)C(=O)O; Nle = CCCC[C@H](N)C(=O)O; Pra = C#CC[C@H](N)C(=O)O

Tests used:
Solubility comparison = type: physicochemical
Text: The MCR agonists in vivo ocular permeability should allow for concentrations well exceeding EC50 values.

[1] = rabbit, in vivo
Procedure: (§1) Animals were acclimated to the study and, upon completion of the acclimation period, each animal was physically examined for determination of suitability for study participation. […] Animals were uniquely identified by corresponding cage card number and ear tag.
(§2) The designated peptide formulations (35 μL) were administered to the eye of each animal using a calibrated pipette. With the animal manually restrained, the upper eyelid of the eye was gently elevated to expose the cornea. Treatment was then applied to the cornea without contacting the eye with the pipette tip. The animal was then allowed to blink several times while still manually restrained to distribute the applied solution over the eye prior to being returned to the cage. Treatment was administered once daily (QD) or twice daily (BID) with approximately 8 hours between BID doses. Group 1 was administered a single dose, Group 2 received 4 doses, Group 3 received 8 doses. Samples were collected from 3 animals/group 30 min, 1 hr, 2 hr, 4 hr, and 8 hr post-last dose and from 2 animals/group 24 hours post-last dose.
(§3) Following euthanasia, eyes were enucleated, rinsed 2× with fresh ice-cold PBS, and dabbed dry with gauze. Aqueous humor was removed via a 27- or 30-gauge syringe, placed into a pre-weighted 2 mL polypropylene tube, reweighed, and snap frozen by immersion in liquid nitrogen. The cornea was harvested fresh from each eye, placed into a pre-weighted re-enforced 2 mL polypropylene tube, re-weighed and snap frozen in liquid nitrogen. The remaining ocular tissues were discarded. Ocular samples were stored −80° C. All samples were placed into individual vials and weighed. Aqueous humor and cornea samples were collected.

[2] = tested on: corneal edema following descemetorhexis without endothethelial keratoplasty (DWEK) surgery in rabbits; assay: Corneal edema and wound healing after DWEK surgery, topical administration, rabbit; type: in vivo
Procedure: The objective of the present study was to evaluate the efficacy of the α-MSH peptide analogues in reducing corneal edema following descemetorhexis without endothethelial keratoplasty (DWEK) surgery in rabbits. […] Treatment was administered once (QD) or twice daily (BID) with approximately 6-8 hours between each BID dose.
The rabbits were subjected to a surgical procedure prior to administering topical treatment. The animals received buprenorphine (0.01-0.05 mg/kg SC) and were sedated immediately prior to the procedure with ketamine/xylazine cocktail (20-50/4-10 mg/kg IM). Aseptic precautions were taken for the surgical procedure. […] Sterile eyewash was then used to irrigate the ocular surface of the left eye. […] The animal's corneal epithelium was marked with a circular ring (5 mm) to create a template for resection of the host tissue. […] Descemet's membrane was scored peripherally using a reverse Terry-Sinskey hook, and then Descemet's membrane was peeled from the overlying stroma. Descemet's membrane was removed using forceps. Viscoelastic was removed by Irrigation Aspiration (IA) using balanced salt […] (BSS). One (1) ml of epinephrine 1:1000 and 0.5 ml of heparin (10,000 USP units/ml) was added to each 500 ml of irrigation solution (BSS) to facilitate pupil dilation, control inflammation, and reduce fibrin formation. […]

in vivo = settings: rabbit, topical or ocular, 35 uL of 5 mg/ml solution per eye per dose
Procedure: as §1, §2, §3

[3] = tested on: iPSC-derived ocular stem cells (ABC-101); assay: ROS assay after TBHP challenge of ocular stem cells; type: cell-based; settings: 550 uM TBHP challenge, ROS at 3 hours and 4 hours, normalized to challenged wells without peptide, FIGS. 7-8
Text: To assess the cytoprotective properties of the α-MSH peptide analogues in-vitro the present inventors tested their modulatory influence on reactive oxygen species (ROS) production and caspase activation in response to cellular stress. For these in-vitro challenge assays, the present inventors induced cellular stress using tert-Butyl hydroperoxide (TBHP) or calcium ionophore (A23187), compounds which are respectively known to induce oxidative and metabolic stress. Oxidative stress was correlated to an increase of ROS within cells. […] Within the current assays, the present inventors monitored ROS accumulation and subsequent caspase activity as readouts of cellular stress and eventual cell death. […] Both the ROS and caspase readouts were obtained by using commercially available reagent kits, which are based on a fluorescent indicator readout for each metric per the supplier's protocol. […] Since the assay uses a cell-permeable dye, the readout can be performed within live cells and results in a red fluorescent signal (Ex/Em=520/605 nm), which is correlated to the amount of accumulated ROS within each well. Within the present protocol, the inventors read ROS accumulation over time, starting from 1 hour after incubation up to 4 hours post-incubation. The ocular stem cells (ABC-101 cells) were challenged with 550 uM of TBHP and ROS production was assessed over several hours. […]

[4] = tested on: iPSC-derived ocular stem cells (ABC-101); assay: Apo-ONE Homogeneous Caspase-3/7 assay after A23187 challenge of ocular stem cells; type: cell-based
Text: To assess the cytoprotective properties of the α-MSH peptide analogues in-vitro the present inventors tested their modulatory influence on reactive oxygen species (ROS) production and caspase activation in response to cellular stress. For these in-vitro challenge assays, the present inventors induced cellular stress using tert-Butyl hydroperoxide (TBHP) or calcium ionophore (A23187), compounds which are respectively known to induce oxidative and metabolic stress. Oxidative stress was correlated to an increase of ROS within cells. […] Within the current assays, the present inventors monitored ROS accumulation and subsequent caspase activity as readouts of cellular stress and eventual cell death. […] Both the ROS and caspase readouts were obtained by using commercially available reagent kits, which are based on a fluorescent indicator readout for each metric per the supplier's protocol. […] Readouts are routinely taken at 80 min and 150 min after incubation is started. Following a similar layout as with the ROS induction assay, the present inventors subsequently assessed induction of Caspase 3/7 activity following a 1 hour challenge with 2.5 uM A23187. Readings from Caspase 3/7 activation were taken at 80 and 150 minutes post-substrate addition and readouts were compared to non-supplemented controls.

For CCCC[C@H](NC(C)=O)C(=O)N[C@H]1CCCCn2cc(nn2)C[C@@H](C(N)=O)NC(=O)[C@H](Cc2c[nH]c3ccccc23)NC(=O)[C@H](CCCNC(=N)N)NC(=O)[C@@H](Cc2ccccc2)NC(=O)[C@H](Cc2cnc[nH]2)NC1=O [Peptide K110, Ac-Nle-[Lys(N3)-His-DPhe-Arg-Trp-Pra]-NH2] (Ac-[Nle][Lys(N3)]H[dF]RW[Pra]-NH2; triazole 2-7), the Solubility (Solubility comparison) was >5000 µg/mL.
For CCCC[C@H](NC(=O)c1cc(O)cc(O)c1)C(=O)N[C@H]1CCCCn2cc(nn2)C[C@@H](C(N)=O)NC(=O)[C@H](Cc2c[nH]c3ccccc23)NC(=O)[C@H](CCCNC(=N)N)NC(=O)[C@@H](Cc2ccc(F)cc2)NC(=O)[C@H](Cc2c[nH]cn2)NC1=O [Peptide K173, HyBA-Nle-[Lys(N3)-His-Dphe(4-F)-Arg-Trp-Pra]-NH2] ({Benzoyl(3,5-(OH)2)}-[Nle][Lys(N3)]H[dPhe(4-F)]RW[Pra]-NH2; triazole 2-7), the “aqueous humor (AH) concentrations with repeated dosing” value [1] was “increase with repeated dosing”, the “levels after 24 hours” value [1] was “measurable levels were detected after 24 hours in all dose groups” and the “ocular surface retention and Tmax” value ([1]; topical or ocular) was “prolonged ocular surface retention and Tmax”. The “wound healing (rate of wound closure, corneal flat mount)” value ([2]; 3 animals per group, FIGS. 12A, 12B) was “enhanced wound healing”, the “corneal edema (corneal stromal thickness by OCT)” value ([2]; topical 1 mg/ml or 5 mg/ml QD or BID, FIG. 11) was “decreased corneal edema” and the level at 24 h (in vivo; K173 Concentrations (ng/mL) in Rabbit Aqueous Humor OD Sample) was 3.34 ng/mL. The level at 24 h (in vivo; K173 Concentrations (ng/mL) in Rabbit Aqueous Humor OS Sample) was 3.94 ng/mL.
With CCCC[C@H](NC(=O)c1cc(O)cc(O)c1)C(=O)N[C@H]1CCCCn2cc(nn2)C[C@@H](C(N)=O)NC(=O)[C@H](Cc2c[nH]c3ccccc23)NC(=O)[C@H](CCCNC(=N)N)NC(=O)[C@@H](Cc2ccccc2)NC(=O)[C@H](Cc2c[nH]cn2)NC1=O [Peptide K174, HyBA-Nle-[Lys(N3)-His-DPhe-Arg-Trp-Pra]-NH2] ({Benzoyl(3,5-(OH)2)}-[Nle][Lys(N3)]H[dF]RW[Pra]-NH2; triazole 2-7) the “protection against ROS accumulation” value [3] was “protective against ROS accumulation down to the low pM range”, the “percent increase in caspase activation over control” value ([4]; 100 nM peptide, A23187 challenge, FIG. 9) was “lowest percent increase over control” and the “Caspase 3/7 activity (protection against apoptosis induction)” value ([4]; 1 hour challenge with 2.5 uM A23187, readings at 80 and 150 minutes, vs non-supplemented controls, FIGS. 9-10) was “highest degree of protection against apoptosis induction”.
